Assay results: ChEMBL document CHEMBL4483862, “Open-source discovery of chemical leads for next-generation chemoprotective antimalarials” (2018)

Tested on: Plasmodium berghei
Experiment: Luciferase/luciferin-expressing antifolate-resistant parasites were used to infect a culture of HepG2 cells that were pre-incubated with compounds. Infected hepatocytes emit light due to the luciferase reaction. Assay results are presented as the percent inhibition of light emission compared to control. […]
Format: functional
Details: sporozoite; for IC90: read-out: LUCIFERASE INFECTION ASSAY - IC90

Structure (SMILES)	IC90	other results
O=C(Nc1cc(C(F)(F)F)cc(C(F)(F)F)c1)Nc1cnn(-c2ccc([N+](=O)[O-])cc2)c1C(F)(F)F	3.21 µM	IC50 (PBLUC_HILL_SLOPE 8.84, PBLUC_R_SQUARED 0.29, read-out: LUCIFERASE INFECTION ASSAY - IC50): 2.5 µM
CCCc1cc(NCc2ccccn2)n2nc(C)c(-c3ccccc3)c2n1	4.47 µM	IC50 (PBLUC_HILL_SLOPE 8.47, PBLUC_R_SQUARED 0.549, read-out: LUCIFERASE INFECTION ASSAY - IC50): 3.45 µM
CN(C)CCCn1c(SCC(=O)N2c3ccccc3Sc3ccccc32)nc2ccccc2c1=O	9.41 µM	IC50 (PBLUC_HILL_SLOPE 9.03, PBLUC_R_SQUARED 0.19, read-out: LUCIFERASE INFECTION ASSAY - IC50): 7.38 µM
CCN(CC)CCNC(=O)c1ccc(NC(=O)c2cccc(S(=O)(=O)N3CCc4ccccc43)c2)cc1	> 10 µM	IC50 (PBLUC_HILL_SLOPE 8.86, PBLUC_R_SQUARED 0.0114, read-out: LUCIFERASE INFECTION ASSAY - IC50): > 10 µM
CCCNc1cc(-c2ccccc2)nc(-n2nc(C)cc2C)n1	4.24 µM	IC50 (PBLUC_HILL_SLOPE 8.43, PBLUC_R_SQUARED 0.511, read-out: LUCIFERASE INFECTION ASSAY - IC50): 3.27 µM
COc1cc(-c2cnc3cnc(-c4ccc(N5CCN(C)CC5)nc4)cn23)ccc1O	> 7.92 µM	IC50 (PBLUC_HILL_SLOPE 8.9, PBLUC_R_SQUARED 0.156, read-out: LUCIFERASE INFECTION ASSAY - IC50): 7.05 µM
O=C(CCn1ccc2ccccc21)NC(Cc1ncc[nH]1)c1ccccc1 (stereo not given)	4.79 µM	IC50 (PBLUC_HILL_SLOPE 8.72, PBLUC_R_SQUARED 0.12, read-out: LUCIFERASE INFECTION ASSAY - IC50): 3.72 µM
O=C(NCc1nccs1)c1nn(Cc2ccccc2)c2c1CN(C(=O)c1cc3ccccc3[nH]1)CC2	> 6.65 µM	IC50 (PBLUC_HILL_SLOPE 8.98, PBLUC_R_SQUARED 0.075, read-out: LUCIFERASE INFECTION ASSAY - IC50): 5.69 µM
CNC(=O)c1cccc(-c2ccc3ncc(-c4cccc(OC(F)(F)F)c4)n3n2)c1	4.88 µM	IC50 (PBLUC_HILL_SLOPE 8.51, PBLUC_R_SQUARED 0.256, read-out: LUCIFERASE INFECTION ASSAY - IC50): 3.77 µM
COc1cc(Nc2nccc3c2cc(-c2ccc(C(=O)N(C)C)cc2)n3C)cc(C(F)(F)F)c1	4.64 µM	IC50 (PBLUC_HILL_SLOPE 8.8, PBLUC_R_SQUARED 0.371, read-out: LUCIFERASE INFECTION ASSAY - IC50): 3.62 µM
O=C(Cn1ncc(Cl)c(Cl)c1=O)N(Cc1cccs1)c1ccc2c(c1)OCCO2	> 10 µM	IC50 (PBLUC_HILL_SLOPE 8.55, 0.379, PBLUC_R_SQUARED 0.113, 0.341, read-out: LUCIFERASE INFECTION ASSAY - IC50): 6.34 µM
CCCCCc1ccc(C(=O)Nc2nc3ccccn3c2C(=O)NCCCN2CCOCC2)cc1	3.5 µM	IC50 (PBLUC_HILL_SLOPE 8.91, PBLUC_R_SQUARED 0.136, read-out: LUCIFERASE INFECTION ASSAY - IC50): 2.74 µM
CCCCCc1ccc(-c2nnc(Sc3ccc(C(F)(F)F)cc3[N+](=O)[O-])[nH]2)cc1	> 7.56 µM	IC50 (PBLUC_HILL_SLOPE 9.1, PBLUC_R_SQUARED 0.598, read-out: LUCIFERASE INFECTION ASSAY - IC50): 6.15 µM
Cc1nc2ccccn2c1-c1nc(CCC2CCCCC2)c(C(=O)c2c(C)[nH]c3ccccc23)s1	> 10 µM	IC50 (PBLUC_HILL_SLOPE 8.8, PBLUC_R_SQUARED 0.142, read-out: LUCIFERASE INFECTION ASSAY - IC50): 8.77 µM
CCOC(=O)N1CCC(N/C=C(\C#N)S(=O)(=O)c2ccc(Cl)cc2)CC1	3.29 µM	IC50 (PBLUC_HILL_SLOPE 8.69, PBLUC_R_SQUARED 0.709, read-out: LUCIFERASE INFECTION ASSAY - IC50): 2.55 µM
COc1ccc(-c2cc3ncnc(NCC4CN(Cc5ccccc5)CCO4)c3s2)cc1 (stereo not given)	> 10 µM	IC50 (PBLUC_HILL_SLOPE 9.06, PBLUC_R_SQUARED 0.282, read-out: LUCIFERASE INFECTION ASSAY - IC50): 8.38 µM
CC(C)Cc1ccc(CN2CCc3c(c(C(=O)N(C)Cc4cscn4)nn3CC3CC3)C2)cc1	> 6.91 µM	IC50 (PBLUC_HILL_SLOPE 8.64, PBLUC_R_SQUARED 0.119, read-out: LUCIFERASE INFECTION ASSAY - IC50): 5.84 µM
Cc1nc(NC(=O)c2ccc(C(C)(C)C)cc2)ccc1Br	> 9.5 µM	IC50 (PBLUC_HILL_SLOPE 8.59, PBLUC_R_SQUARED 0.6, read-out: LUCIFERASE INFECTION ASSAY - IC50): 7.43 µM
COc1ccc(C(CNc2nc(-c3cccnc3)nc3ccccc23)c2c[nH]c3ccccc23)cc1 (stereo not given)	> 10 µM	IC50 (PBLUC_HILL_SLOPE 8.92, PBLUC_R_SQUARED 0.072, read-out: LUCIFERASE INFECTION ASSAY - IC50): > 10 µM
Cc1nccc(-c2ccc(NC(=O)c3cc(S(=O)(=O)NCc4ccccc4)ccc3C)cc2)n1	> 10 µM	IC50 (PBLUC_HILL_SLOPE 8.64, PBLUC_R_SQUARED 0.681, read-out: LUCIFERASE INFECTION ASSAY - IC50): 8.33 µM

Structure (SMILES)	IC90	other results
CCCCN(C)CC(O)Cn1c2ccc(Br)cc2c2cc(Br)ccc21 (stereo not given)	> 7.05 µM	IC50 (PBLUC_HILL_SLOPE 8.48, PBLUC_R_SQUARED 0.699, read-out: LUCIFERASE INFECTION ASSAY - IC50): 5.83 µM
O=S(=O)(Nc1cccc2cccnc12)c1cc(Cl)c(Cl)cc1Cl	> 8.51 µM	IC50 (PBLUC_HILL_SLOPE 9.06, PBLUC_R_SQUARED 0.472, read-out: LUCIFERASE INFECTION ASSAY - IC50): > 8.51 µM
CCCCC(CC)C(=O)Nc1nc2ccccn2c1C(=O)NC1CCCCC1 (stereo not given)	> 8.58 µM	IC50 (PBLUC_HILL_SLOPE 8.64, PBLUC_R_SQUARED 0.333, read-out: LUCIFERASE INFECTION ASSAY - IC50): 8.01 µM
COc1cncc(-c2cncc(Nc3ccc(C(C)C)cc3)c2)c1	5.21 µM	IC50 (PBLUC_HILL_SLOPE 9.07, PBLUC_R_SQUARED 0.477, read-out: LUCIFERASE INFECTION ASSAY - IC50): 4.09 µM
Oc1ccc(/C=N/n2c(-c3ccco3)cs/c2=N\c2ccc(F)cc2F)c(O)c1	> 10 µM	IC50 (PBLUC_HILL_SLOPE 8.45, PBLUC_R_SQUARED 0.234, read-out: LUCIFERASE INFECTION ASSAY - IC50): 8.99 µM
COc1ccccc1C1=NOC(=C2Sc3ccccc3C2=O)N1	4.54 µM	IC50 (PBLUC_HILL_SLOPE 8.91, PBLUC_R_SQUARED 0.334, read-out: LUCIFERASE INFECTION ASSAY - IC50): 3.55 µM
COC(=O)c1scc(C)c1N1C(=O)C=CC1=O	> 13.1 µM	IC50 (PBLUC_HILL_SLOPE 9.1, PBLUC_R_SQUARED 0.327, read-out: LUCIFERASE INFECTION ASSAY - IC50): > 13.1 µM
CCOC(=O)N1CCC(NC(=O)/C(=C/c2ccc(OC(F)F)cc2)c2ccccc2)CC1	9.96 µM	IC50 (PBLUC_HILL_SLOPE 9.1, PBLUC_R_SQUARED 0.0303, read-out: LUCIFERASE INFECTION ASSAY - IC50): 7.82 µM
Cc1cccn2cc(CN3CCC(c4nc5ccccc5s4)CC3)nc12	3.59 µM	IC50 (PBLUC_HILL_SLOPE 8.96, 1.52, PBLUC_R_SQUARED 0.442, 0.954, read-out: LUCIFERASE INFECTION ASSAY - IC50): 2.59 µM
Nc1nc(SCC(=O)NC2CCCc3ccccc32)nc2sccc12 (stereo not given)	> 10 µM	IC50 (PBLUC_HILL_SLOPE 8.94, PBLUC_R_SQUARED 0.274, read-out: LUCIFERASE INFECTION ASSAY - IC50): 9.02 µM
CCOC(=O)C1CCCN(CC(=O)N2N=C3/C(=C/c4ccc(Cl)cc4)CCCC3C2c2ccc(Cl)cc2)C1 (stereo not given)	> 10 µM	IC50 (PBLUC_HILL_SLOPE 9.1, PBLUC_R_SQUARED 0.32, read-out: LUCIFERASE INFECTION ASSAY - IC50): 7.93 µM
CC(OC(=O)c1ccccc1Nc1ccccc1)C(=O)NC1CC1 (stereo not given)	> 10 µM	IC50 (PBLUC_HILL_SLOPE 8.51, PBLUC_R_SQUARED 0.0555, read-out: LUCIFERASE INFECTION ASSAY - IC50): 8.65 µM
O=C(N/N=C/c1ccc(N2CCCCC2)s1)c1ccccc1O	5.71 µM	IC50 (PBLUC_HILL_SLOPE 8.76, 2.86, PBLUC_R_SQUARED 0.104, 0.555, read-out: LUCIFERASE INFECTION ASSAY - IC50): 3.37 µM
CCCn1c(NC(=O)c2oc3ccccc3c2COCC)nc2ccccc21	> 10 µM	IC50 (PBLUC_HILL_SLOPE 8.76, PBLUC_R_SQUARED 0.513, read-out: LUCIFERASE INFECTION ASSAY - IC50): 8.84 µM
COc1ccc(-c2cnc3cnc(-c4ccc(C(=O)NCCO)cc4)cn23)cc1	4.08 µM	IC50 (PBLUC_HILL_SLOPE 8.42, PBLUC_R_SQUARED 0.632, read-out: LUCIFERASE INFECTION ASSAY - IC50): 3.15 µM
CC(C)Oc1ccc(Nc2cc3c(cn2)cc(-c2cccc(C(F)(F)F)c2)n3C)cc1	5.18 µM	IC50 (PBLUC_HILL_SLOPE 8.74, PBLUC_R_SQUARED 0.3, read-out: LUCIFERASE INFECTION ASSAY - IC50): 4.03 µM
O=C(Nc1ccc(Oc2ccc(F)cc2)nc1)c1cccc(-n2cnnn2)c1	> 10 µM	IC50 (PBLUC_HILL_SLOPE 8.75, PBLUC_R_SQUARED 0.449, read-out: LUCIFERASE INFECTION ASSAY - IC50): 8.72 µM
CCCCNC(=O)c1c(NC(=O)c2cccc(Cl)c2Cl)nc2ccccn12	> 8.14 µM	IC50 (PBLUC_HILL_SLOPE 8.82, PBLUC_R_SQUARED 0.193, read-out: LUCIFERASE INFECTION ASSAY - IC50): 6.71 µM
COc1cccc2cc(/C=C/c3nc4ccccc4s3)oc12	4.1 µM	IC50 (PBLUC_HILL_SLOPE 8.93, PBLUC_R_SQUARED 0.0906, read-out: LUCIFERASE INFECTION ASSAY - IC50): 3.2 µM
O=C1C=CC(=O)N1c1cccc(N2C(=O)C=CC2=O)c1	> 12.3 µM	IC50 (PBLUC_HILL_SLOPE 9.05, PBLUC_R_SQUARED 0.121, read-out: LUCIFERASE INFECTION ASSAY - IC50): 11.2 µM
